Measured values taken from patent publication US10618885B2, “Compounds that activate autophagy” (Macau University of Science and Technology, priority 2018, dated 2020).
Where two headings read alike, the source gives them in different places.

Tests used:
Assay type in all cases: cell-based
[1] = system: LC3 conversion (LC3-I to LC3-II) in HeLa cells; assay: Western blot for autophagic marker LC3 conversion in HeLa cells; settings: 24 hours, three concentrations, normalised to β-actin
Procedure: After drug treatment, adherent and floating cells were lysed with RIPA lysis buffer. Protein concentrations were determined using the Bio-Rad protein assay (Bio-Rad Laboratories, Inc., Hercules, Calif., USA). The cell lysates of samples were subjected to electrophoresis on SDS polyacrylamide gels and transferred to Hybond enhanced chemiluminescence nitrocellulose membranes (Amersham Biosciences, Piscataway, N.J.), which were then blocked with 5% non-fat dry milk protein for 1 hour. Membranes were then incubated with the indicated primary antibodies overnight at 4° C. The binding of the antibody was visualized by peroxidase-coupled secondary antibody using the ECL (enhanced chemiluminescence) Western Blotting Detection Reagents (Invitrogen, Paisley, Scotland, UK). Band intensities were quantified by using the software ImageJ (NIH, Bethesda, Md., USA).
The presence of the autophagy marker protein, LC3-II was determined in HeLa cells by western blot analysis. HeLa cancer cells were treated with dauricine (Dau) or compounds 2a-4b with three indicated concentrations for 24 hours. Cell lysates were analyzed by Western blot for LC3 conversion ([…]) and β-actin. The western blot was shown in FIGS. 4A, 4C, 4E, 4G, 4I, 4K, and 4M. LC3-II band intensities were quantified using densitometric analysis and normalised to β-actin. The results were shown in FIGS. 4B, 4D, 4F, 4H, 4J, 4L and 4N. Data are expressed as a fold change relative to the DMSO-treated negative control. Bars are representatives of three independent experiments. Error bars, SEM. *, P<0.05; **, P<0.01; ***, P<0.001.

[2] = system: HeLa cancer cells; assay: MTT cytotoxicity assay in HeLa cancer cells
Procedure: All test compounds were dissolved in DMSO (Dimethyl sulfoxide) at final concentrations of 50 mmol/L and stored at −20° C. before use. Cytotoxicity was assessed using the 3-(4, 5-dimethylthiazol-2-yl)-2, 5-diphenyltetrazolium bromide (MTT) (5.0 mg/ml) assay. Briefly, 4×10^3 cells were seeded per well in 96-well plates before drug treatment. After overnight culture, the cells were then exposed to different concentrations of test compounds (0.039-100 μmol/L) for 72 hours. Cells without drug treatment were used as control. Subsequently, MTT (10 μL) was added to each well and incubated at 37° C. for 4 hours followed by the addition of 100 μL solubilization buffer (10% SDS (Sodium dodecyl sulfate) in 0.01 mol/L HCl) and overnight incubation. A570 nm was determined from each well on the next day. The percentage of cell viability was calculated using the following formula: Cell viability (%)=Atreated/Acontrol×100. Data were obtained from triplication independent experiments.
FIG. 1 is a graph 100 showing cell viability of HeLa cells treated with dauricine, N-desmethyldauricine, and compounds 2a-4b. HeLa cancer cells in 96 well-plates were treated with 0 to 20 μM of dauricine (Dau), N-desmethyldauricine (NDau) and dauricine derivatives (2a-4b) for 72 hours. Cell cytotoxicity was then assessed using the 3-(4, 5-dimethylthiazol-2-yl)-2, 5-diphenyltetrazolium bromide (MTT) (5.0 mg/ml) assay. The IC50 values shown in FIG. 1 are mean values of three independent experiments.

[3] = system: HeLa cells; assay: Annexin V cell death analysis by flow cytometry, with or without wortmannin; settings: 24 hours; for compound-mediated cell death on blocking of autophagy by wortmannin: 5 μM compound plus 1 μM wortmannin; for percentage of cell death: 5 μM compound, annexin V staining, without wortmannin
Procedure: Apoptosis was detected by Annexin V staining kit (BD Biosciences, San Jose, Calif., USA). In brief, cells were exposed to the indicated concentrations of […] for 24 hours. Cells were then harvested and analyzed by flow cytometry using FITC-Annexin V and Propidium Iodide staining according to the manufacturer's instructions. Apoptotic cells were quantitatively counted by a flow cytometer (BD FACSAria III, San Jose, Calif., USA). Data acquisition and analysis were performed with CellQuest (BD Biosciences, San Jose, Calif., USA) from triple independent experiments.
To investigate whether the autophagy induced by compounds 2a, 2b, 3a, and 4a contributes to cell death, Annexin V cell death analysis was conducted. HeLa cells treated with these compounds (5 μM) in the presence or absence of 1 μM of wortmannin for 24 hours were assayed by flow cytometry after annexin V staining. Bar charts of FIGS. 5C and 5E represent the quantitation of cell death (%).

[4] = system: GFP-LC3 stable HeLa cells; assay: Autophagy LC3 puncta detection in GFP-LC3 stable HeLa cells; settings: 24 hours; for formation of GFP-LC3 puncta (fluorescence images): compared with untreated cells; for percentage of cells with GFP-LC3 puncta (dose dependence): three concentrations
Procedure: The detection of LC3 autophagic puncta was conducted using GFP-LC3 stable HeLa cancer cells as described below. In brief, compounds-treated GFP-LC3-HeLa cells on cover slips were fixed with 4% paraformaldehyde (Sigma) for 20 min at room temperature and then rinsed with PBS (phosphate-buffered saline). The coverslips were then mounted with FLUORSAVE™ mounting media (Calbiochem, San Diego, Calif., USA) for fluorescence imaging and the localization of LC3 autophagosomes were captured under the API Delta Vision Live-cell Imaging System (Applied Precision Inc., GE Healthcare Company, Washington, USA). To quantify autophagy, guidelines were followed to monitor autophagy, the percentage of cells with punctuate LC3 immunofluorescence staining was calculated by counting the number of the cells showing the increased punctuate pattern of LC3 fluorescence (≥10 dots/cell) in immunofluorescence-positive cells over the total number of cells in the same field. A minimum of 1000 cells from randomly selected fields were scored.
FIG. 2A-3H show identification of compounds 2a-4b with autophagic activities. GFP-LC3 puncta in compound-treated GFP-LC3-HeLa cells were detected. GFP-LC3 stable HeLa cells were treated with DMSO (−ve Ctrl) or the indicated concentrations of dauricine (Dau), N-desmethyldauricine (NDau) and dauricine derivatives (2a-4b) for 24 hours. Representative fluorescence images from the highest tested concentration of compound captured at 60× magnification were shown; scale bar, 15 μm. Bar charts represent the quantitation of autophagic cells. The percentages of autophagic cells were calculated as the number of cells with GFP-LC3 puncta (≥10 puncta/cell) divided by the total number of GFP-positive cells in the same field.

[5] = HeLa cancer cells, 72 hours, MTT, mean of three independent experiments, read-out: IC50 (cytotoxicity)

COc1cc2c(cc1OC)C(Cc1ccc(Oc3cc(CC4c5cc(OC)c(OC)cc5CCN4C)ccc3OC(=O)c3ccco3)cc1)N(C)CC2 (centres unmarked) [Compound 3b]
conversion of LC3-I to LC3-II (fold change relative to DMSO control) [1]: increased the conversion of LC3-I to LC3-II in a dose dependent manner

COc1cc2c(cc1OC)C(Cc1ccc(Oc3cc(CC4c5cc(OC)c(OC)cc5CCN4C)ccc3OC(=O)c3ccccc3)cc1)N(C)CC2 (centres unmarked) [Compound 3a]
IC50 [2, 5]: 6.44 µM | conversion of LC3-I to LC3-II (fold change relative to DMSO control) [1]: increased the conversion of LC3-I to LC3-II in a dose dependent manner | compound-mediated cell death on blocking of autophagy by wortmannin [3]: significantly inhibited | percentage of cell death [3]: markedly increased the percentage of cell death

COc1cc2c(cc1OC)[C@@H](Cc1ccc(Oc3cc(C[C@H]4NCCc5cc(OC)c(OC)cc54)ccc3O)cc1)N(C)CC2 [N-desmethyldauricine, reference compound]
IC50 [2]: 15.8 µM | conversion of LC3-I to LC3-II (fold change relative to DMSO control) [1]: increased the conversion of LC3-I to LC3-II in a dose-dependent manner | formation of GFP-LC3 puncta (fluorescence images) [4]: increased formation of GFP-LC3 puncta | percentage of cells with GFP-LC3 puncta (dose dependence) [4]: induced autophagic puncta in HeLa cells in a dose-dependent manner

COc1cc2c(cc1OC)C(Cc1ccc(Oc3cc(CC4c5cc(OC)c(OC)cc5CCN4C)ccc3OC(=O)N(C)C)cc1)N(C)CC2 (centres unmarked) [Compound 2c]
conversion of LC3-I to LC3-II (fold change relative to DMSO control) [1]: increased the conversion of LC3-I to LC3-II in a dose dependent manner

COC[C@H]1OC(=O)c2coc3c2[C@@]1(C)C1=C(C3=O)[C@@H]2CCC(=O)[C@@]2(C)C[C@H]1OC(C)=O [wortmannin, reference compound]
cytotoxic effect of wortmannin alone ([3]; wortmannin alone (1 μM)): no cytotoxic effect

CCN(C)C(=O)Oc1ccc(CC2c3cc(OC)c(OC)cc3CCN2C)cc1Oc1ccc(CC2c3cc(OC)c(OC)cc3CCN2C)cc1 (centres unmarked) [Compound 2d]
conversion of LC3-I to LC3-II (fold change relative to DMSO control) [1]: increased the conversion of LC3-I to LC3-II in a dose dependent manner

COc1cc2c(cc1OC)C(Cc1ccc(Oc3cc(CC4c5cc(OC)c(OC)cc5CCN4C)ccc3OC(=O)N(C)c3ccccc3)cc1)N(C)CC2 (centres unmarked) [Compound 2b]
IC50 [2, 5]: 6.72 µM | conversion of LC3-I to LC3-II (fold change relative to DMSO control) [1]: increased the conversion of LC3-I to LC3-II in a dose dependent manner | compound-mediated cell death on blocking of autophagy by wortmannin [3]: significantly inhibited | percentage of cell death [3]: markedly increased the percentage of cell death

COc1cc2c(cc1OC)C(Cc1ccc(Oc3cc(CC4c5cc(OC)c(OC)cc5CCN4C)ccc3OC(=O)N(c3ccccc3)c3ccccc3)cc1)N(C)CC2 (centres unmarked) [Compound 2a]
IC50 [2, 5]: 5.44 µM | conversion of LC3-I to LC3-II (fold change relative to DMSO control) [1]: increased the conversion of LC3-I to LC3-II in a dose dependent manner | compound-mediated cell death on blocking of autophagy by wortmannin [3]: significantly inhibited | percentage of cell death [3]: markedly increased the percentage of cell death

CCN(CC)C(=O)Oc1ccc(CC2c3cc(OC)c(OC)cc3CCN2C)cc1Oc1ccc(CC2c3cc(OC)c(OC)cc3CCN2C)cc1 (centres unmarked) [Compound 2e]
conversion of LC3-I to LC3-II (fold change relative to DMSO control) [1]: increased the conversion of LC3-I to LC3-II in a dose dependent manner

COc1cc2c(cc1OC)C(Cc1ccc(Oc3cc(CC4c5cc(OC)c(OC)cc5CCN4C)ccc3OS(=O)(=O)c3ccc(C)cc3)cc1)N(C)CC2 (centres unmarked) [Compound 4a]
IC50 [2, 5]: 6.1 µM | conversion of LC3-I to LC3-II (fold change relative to DMSO control) [1]: increased the conversion of LC3-I to LC3-II in a dose dependent manner | compound-mediated cell death on blocking of autophagy by wortmannin [3]: significantly inhibited | percentage of cell death [3]: markedly increased the percentage of cell death

COc1cc2c(cc1OC)[C@@H](Cc1ccc(Oc3cc(C[C@@H]4c5cc(OC)c(OC)cc5CCN4C)ccc3O)cc1)N(C)CC2 [dauricine, reference compound]
IC50 ([2]; Homo sapiens, HeLa, 72 h, read-out: IC50 (cytotoxicity)): 15.5 µM | conversion of LC3-I to LC3-II (fold change relative to DMSO control) [1]: increased the conversion of LC3-I to LC3-II in a dose-dependent manner | formation of GFP-LC3 puncta (fluorescence images) [4]: increased formation of GFP-LC3 puncta | percentage of cells with GFP-LC3 puncta (dose dependence) [4]: induced autophagic puncta in HeLa cells in a dose-dependent manner

COc1cc2c(cc1OC)C(Cc1ccc(Oc3cc(CC4c5cc(OC)c(OC)cc5CCN4C)ccc3OC(=O)N(C)OC)cc1)N(C)CC2 (centres unmarked) [Compound 2f]
conversion of LC3-I to LC3-II (fold change relative to DMSO control) [1]: increased the conversion of LC3-I to LC3-II in a dose dependent manner

COc1cc2c(cc1OC)C(Cc1ccc(Oc3cc(CC4c5cc(OC)c(OC)cc5CCN4C)ccc3OS(C)(=O)=O)cc1)N(C)CC2 (centres unmarked) [Compound 4b]
conversion of LC3-I to LC3-II (fold change relative to DMSO control) [1]: increased the conversion of LC3-I to LC3-II in a dose dependent manner

COc1cc2c(cc1OC)C(Cc1ccc(Oc3cc(CC4c5cc(OC)c(OC)cc5CCN4C)ccc3OC(=O)N3CCOCC3)cc1)N(C)CC2 (centres unmarked) [Compound 2g]
conversion of LC3-I to LC3-II (fold change relative to DMSO control) [1]: increased the conversion of LC3-I to LC3-II in a dose dependent manner
